Test results as given in patent publication US7687473B2, “5-amino-4-imidazolecarboxamide riboside and its nucleobase as potentiators of antifolate transport and metabolism” (Health Research, Inc., priority 2005, dated 2010).
Where two headings read alike, the source gives them in different places.

How the values were obtained:
[1] = system: CCRF-CEM cells; assay: [3H]MTX uptake (initial velocity and 30 min accumulation) in CCRF-CEM cells; format: cell-based, human; conditions: for Potentiation of [3H]MTX uptake at 30 min: compound at 0.5 mM, 10 min pre-incubation with TMTX
Method: Quantitation of folate and antifolate uptake. The method is essentially as follows. Briefly, logarithmically growing (3-5×10^5/ml) CCRF-CEM cells were harvested at room temperature by centrifugation at 1000×g for 5 min. After washing with the appropriate medium, cells were suspended at ≈2×10^7 cells/ml for use in transport studies. […] Anion-free MHS contains 250 mM sucrose and 20 mM HEPES, titrated to pH 7.4 with MgO. […] Uptake was measured as a function of time for 30 min (for rate and extent measurements) or over 5 min (studies requiring initial velocities). […] Uptake was terminated by diluting 100 μL samples into 1 ml of iced 0.9% NaCl. […] The supernatant was aspirated. The cell pellet was washed once with 1 ml iced 0.9% NaCl and centrifuged as above. The washed pellet was solubilized in 1 ml of 0.3% Triton X-100 by incubation for 60 min at 37° C. The solubilized pellet was transferred to a scintillation vial, 10 ml of Liquiscint (National Diagnostics, Atlanta, Ga.) was added and radioactivity was quantitated in a Beckman Model LS6500 liquid scintillation counter. Separate samples at the longest incubation time used in a particular experiment were harvested for HPLC analysis of intracellular contents as above, except that after the second wash the pellets were extracted with 1 ml boiling 0.1 M Na-phosphate, pH 5.5. The extract was clarified by centrifugation and the supernatant was filtered through an MPS-1 filter unit (Amicon) prior to HPLC analysis.

[2] = system: CCRF-CEM cells; assay: cells; format: cell-based, human; conditions: Homo sapiens, CCRF-CEM, read-out: EC50
Method: Inhibition of growth of human cell lines in vitro. Inhibition of growth of CCRF-CEM in continuous and intermittent drug exposures was measured. EC50 values were determined from plots of percent control growth versus the logarithm of drug concentration.
[…]; n=2). […]; n=2). Values presented are average±S.D. for n>2 and average±range for n=2. […] […]; EC50 data may therefore underestimate the biological potency.

[3] = 1 mM, 30 min incubation, TMTX present, Z absent

Structure (SMILES)	Potentiation of [3H]MTX uptake at 30 min [1]	Ability to potentiate [3H]MTX uptake [1]	also measured
OC[C@H]1O[C@@H](n2cnc3c(O)ncnc32)C[C@@H]1O [deoxyinosine]	do not potentiate		
CCCC(=O)Nc1ncnc2c1ncn2[C@@H]1O[C@@H]2COP(=O)(O)O[C@H]2[C@H]1OC(=O)CCC [dibutyryl-cAMP]			30 min accumulation of [3H]MTX compared to TMTX alone [1, 3]: lower 30 min accumulation; Initial velocity of [3H]MTX uptake compared to TMTX alone [1, 3]: reduced initial velocity
O=CO [formate]		unable to potentiate	
NC(=O)CC[C@H](N)C(=O)O [glutamine]		unable to potentiate	
Nc1nc2nc[nH]c2c(=O)[nH]1 [guanine]	do not potentiate		
Nc1nc2c(ncn2[C@@H]2O[C@H](CO)[C@@H](O)[C@H]2O)c(=O)[nH]1 [guanosine]	do not potentiate	unable to potentiate	
O=c1[nH]cnc2nc[nH]c12 [hypoxanthine]	do not potentiate		
OC[C@H]1O[C@@H](n2cnc3c(O)ncnc32)[C@H](O)[C@@H]1O [inosine]	do not potentiate	unable to potentiate	
CSCC[C@H](N)C(=O)O [methionine]		unable to potentiate	
Nc1nc2[nH]cc(CCc3ccc(C(=O)N[C@@H](CCC(=O)O)C(=O)O)cc3)c2c(=O)[nH]1 [pemetrexed]			EC50 ([2]; 0-6 hr pulse exposure out of 120 hr, 50 μM Z): 320 ± 30 nM; EC50 ([2]; 0-6 hr pulse exposure out of 120 hr, absence of Z): 300 ± 10 nM; EC50 ([2]; 0-16 hr pulse exposure out of 120 hr, 50 μM Z): 102 ± 17.5 nM; EC50 ([2]; 0-16 hr pulse exposure out of 120 hr, absence of Z): 85.5 ± 6.5 nM; EC50 ([2]; 120 h, 120 hr continuous exposure, 50 μM Z): 19.8 ± 3.3 nM; EC50 ([2]; 120 h, 120 hr continuous exposure, absence of Z): 18.3 ± 3.4 nM
NC(=O)c1[nH]nc([C@@H]2O[C@H](CO)[C@@H](O)[C@H]2O)c1O [pyrazofurin]		unable to potentiate	
Cc1cn([C@H]2C[C@H](O)[C@@H](CO)O2)c(=O)[nH]c1=O [thymidine]	do not potentiate		
